Laboratory results published in patent US4525356A, “N-substituted flavone-8-carboxamides” (Hokuriku Pharmaceutical Co., Ltd., priority 1982, dated 1985).

Key:
[1] = test system: urinary reflex; experiment: Supression of urinary reflex (bladder balloon, intraduodenal administration); format: in vivo, male Wister rats; conditions: for ED50: Rattus norvegicus, 50% effective dose, suppression of urinary reflex by more than 50%, up and down method, anesthetized male Wister rats, via duodenum, read-out: ID50 (the source's name); for Ratio of Effect: from ID50, Effect of Reference (Reference 1) defined as 1.00
Protocol: According to the method of Kaseda et al. (Rinsho Seiri, 5, 540 (1975)), male Wister rats, weighing approximately 300 g and fasted for 15 to 20 hours prior to experiments, were anesthetized by intraperitoneal injection of 500 mg/Kg of urethane and 50 mg/Kg of α-chloralose, and fixed to a supine position. Then the lower abdomen was opened through a midline incision to expose the bladder, and a balloon (1.5 to 2.0 cm^3) was inserted into the urinary bladder via small incision in the base thereof. The change of inner pressure is recorded via pressure transducer. The urinary reflex was induced by elevating the inner pressure to 10 to 20 cm H2 O. Urine was excreted from the incision of the bladder, where balloon was inserted.
The test compounds were given through polyethylene tube inserted into duodenum via an incision in the fundus.
Mean value of contraction according to the urinary reflex appeared during ten minutes before the administration of the compounds, and at 15, 30, 45 and 60 minutes thereafter, have been investigated for the determination of the effect of the present compounds. The mean value suppressed by more than 50% compared to the initial value has been estimated as effect. ID50 (50% effective dose) was obtained by up and down method.

[2] = in vitro; format: in vitro ADME, male Wister rats; conditions: rat, pH 6; for Ratio of Effect (T 1/2): 50 uM; for half-life at 50 µM: small intestinal mucosa homogenate
Protocol: (2) Stability in acidic medium (corresponding to artificial small intestinal juice)
After sacrificing male Wister rats (weighing approximately 300 g), small intestine was taken out and small intestinal mucous membrane was scraped off, and 20 ml of 0.1M phosphate buffer (pH 6.00) were added per 0.5 g of small intestinal mucous membrane (wet weight) to give 2.5% of homogenate.
Test compound was dissolved in the homogenate to give definite concentration (50 uM). With shaking of the obtained mixture at 37° C., sampling was carried out from time to time, and the content of each compound was quantitatively measured by analyzing peak height of each compound by a reversed-phase high performance liquid chromatography. The half-life time of each compound in acidic medium (corresponding to artificial small intestinal juice, pH 6.0) was measured from a graph indicating content change of each compound against time.
The compounds of the present invention and flavoxate (Reference 1) should be absorbed, after p.o. administation, in the small intestine to show medical effect. Therefore, the stability of the compounds against the hydrolyzation according to the nonspecific esterase contained in small intestinal mucous membrane is very important.

Row | SMILES | ED50 [1] | Ratio of Effect [1] | Ratio of Effect (T 1/2) [2] | half-life at 50 µM [2]
1 | CCN(CC)CCN(C)C(=O)c1cccc2c(=O)c(C)c(-c3ccccc3)oc12 [Compound 3] | 46.7 mg/kg | 5.83 | 252.1 | 6.41 days
2 | Cc1c(-c2ccccc2)oc2c(C(=O)NCCN3CCCCC3)cccc2c1=O [Compound 2] | 26.8 mg/kg | 10.16 | 475.4 | 12.1 days
3 | Cc1c(-c2ccccc2)oc2c(C(=O)NCC(C)N3CCCCC3)cccc2c1=O (stereo not drawn) [Compound 4] | 46.7 mg/kg | 5.83 | 1276.9 | 32.5 days
4 | CCN(CC)CCOC(=O)c1cccc2c(=O)c(C)c(-c3ccccc3)oc12 [Reference 2, reference compound] | 325 mg/kg | 0.84 | 2.3 | 0.0579 days
5 | Cc1c(-c2ccccc2)oc2c(C(=O)O)cccc2c1=O [Reference 3, reference compound] | 308 mg/kg | 0.89 |  | 
6 | CCN(CC)CCNC(=O)c1cccc2c(=O)c(C)c(-c3ccccc3)oc12 [Compound 1] | 36.7 mg/kg | 7.42 | 1066.1 | 27.1 days
7 | Cc1c(-c2ccccc2)oc2c(C(=O)OCCN3CCCCC3)cccc2c1=O [Reference 1, flavoxate, reference compound] | 272 mg/kg | 1.00 | 1.0 | 0.0254 days
8 | CCN(CC)CCNC(=O)c1cccc2c(=O)c(C)c(-c3ccc(OC)cc3)oc12 [Compound 5] | 93.3 mg/kg | 2.92 | 1177.4 | 29.9 days
